In assay [1] the target is T1, DGKζ (hDGKzeta(1-928)-N-His) (Homo sapiens, UniProt Q13574).
T1 construct: hDGKzeta(1-928)-N-His; His (N); made in house; host or cells: Sf21 insect cells (baculovirus)
Kind of assay: In vitro DGK inhibition assay, DGKzeta ADP Glo (in house). Format: biochemical. Particulars: 2 nM DGKζ, 50 μM ATP, 125 uM DLG in liposomes, 1 hour reaction. The essentials:
(§1)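 ADP-Glo luminescence measured ADP formed over 1 h by Sf21-expressed full-length human enzymes: DGKα at 4 nM with 25 µM ATP, DGKζ at 2 nM with 50 µM ATP, both on 125 µM DLG in PS/PC liposomes. Dose–response used 11 threefold dilutions at 2% final DMSO.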

For assay [2], the target named is T2, DGK ζ kinase (Homo sapiens, UniProt Q13574).
T2 construct: purchased Reaction Biology Corp. (contract assay service)
T2 sequence (Q13574 whole entry): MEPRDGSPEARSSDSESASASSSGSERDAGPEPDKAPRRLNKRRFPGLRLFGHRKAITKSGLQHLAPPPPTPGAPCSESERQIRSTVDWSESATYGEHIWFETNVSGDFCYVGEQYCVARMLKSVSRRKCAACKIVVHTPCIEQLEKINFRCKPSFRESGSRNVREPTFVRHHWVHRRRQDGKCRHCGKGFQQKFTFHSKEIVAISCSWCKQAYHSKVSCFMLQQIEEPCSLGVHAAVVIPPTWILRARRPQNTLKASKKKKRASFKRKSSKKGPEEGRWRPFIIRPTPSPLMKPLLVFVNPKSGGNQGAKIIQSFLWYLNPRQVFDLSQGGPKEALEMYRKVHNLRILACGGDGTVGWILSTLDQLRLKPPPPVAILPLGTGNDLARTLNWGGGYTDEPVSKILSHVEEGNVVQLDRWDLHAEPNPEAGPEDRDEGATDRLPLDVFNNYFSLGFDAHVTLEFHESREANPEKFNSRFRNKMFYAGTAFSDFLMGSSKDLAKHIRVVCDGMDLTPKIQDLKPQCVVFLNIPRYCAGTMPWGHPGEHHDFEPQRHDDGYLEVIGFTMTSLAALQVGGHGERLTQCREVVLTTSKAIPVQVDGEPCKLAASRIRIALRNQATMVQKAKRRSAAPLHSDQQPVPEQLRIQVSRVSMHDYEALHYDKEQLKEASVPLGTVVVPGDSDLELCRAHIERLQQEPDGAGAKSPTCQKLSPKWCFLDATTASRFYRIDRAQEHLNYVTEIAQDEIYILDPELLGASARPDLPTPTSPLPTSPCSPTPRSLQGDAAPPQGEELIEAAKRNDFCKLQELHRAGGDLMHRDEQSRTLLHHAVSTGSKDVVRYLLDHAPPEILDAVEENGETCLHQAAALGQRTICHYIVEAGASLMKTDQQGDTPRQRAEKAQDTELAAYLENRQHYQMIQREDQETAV
Kind of assay: DGKzeta kinase ADP Glo assay run by Reaction Biology Corp. Format: biochemical. The note with it: 2 nM kinase, 50 µM ATP, 500 μM DLG, 10-dose duplicate. On the procedure: DGK α and ζ kinases use ATP to phosphorylate the substrate 1,2-dilauroyl-sn-glycerol (DLG). ATP is converted to ADP as a result of this enzymatic reaction.
After the kinase reaction, an ATP-depletion reagent is added to terminate the kinase reaction and deplete any remaining ATP, leaving only ADP. Second, a detection reagent is added to simultaneously convert ADP to ATP and allow the newly synthesized ATP to be converted to light using a coupled luciferase/luciferin reaction.
DGK α and ζ kinase ADP Glo assays were ran by Reaction Biology Corp., 1 Great Valley Parkway, Suite 2, Malvern, 19355, PA, USA. Information provided by the service provider are the following: DGK α and ζ kinases were used at 2 nM final concentration. Reactions were carried out at 50 µM ATP. 500 μM of the substrate DLG (Dilauroyl-sn-glycerol) was used.
For orientation: In ADP-Glo the light output rises with the ADP produced.

Assay [3] relates to MV-3 cells. The assay is described as follows: T-cell - TCB - MV3 killing assay. The format is cell-based, human. The note with it: for Emax: Homo sapiens, MV-3, 120 h, % TCL normalized: MCSP-TCB only = neutral control, 20 μM reference compound A1 = 100%, read-out: MSCP TCB killing MV-3 cells 5 d Emax (%); for EC50: primary human T-cells + MV-3 RFP cells, MCSP-TCB 1.5 pM-5 pM, 120 hours imaging, read-out: MSCP TCB killing MV-3 cells 5 d EC50. How it is done:
All culturing steps are executed at 5% CO2, 37° C. and 95% humidity. MV-3 RFP cells are cultured in MV-3 medium (DMEM+10% FBS, 1× PenStrep and 0.5 μg/mL Puromycin) for at least 3 weeks. Cultured MV-3 cells at 80% confluency are washed once with PBS−− and trypsinized until detached. […] Cells are seeded with 100 μL/well into a 96-well plate (TTP, #92696), and placed for 40 minutes without moving at room temperature in order to achieve evenly distributed attachment of cells. Plates are then incubated until further use.
On the next day, expanded primary human T-cells are thawed and resuspended in T-cell medium to 4*10^6 cells/mL. For 3 hours, they are cultured in a 6-well plate with 6 mL per well at maximum. After culturing the T-cells, they are filtered through a cell strainer (Miltenyi Biotech, #130-041-407), counted again, and cell concentration is adjusted to 2*10^6 cells/mL.
MCSP-TCB or PBS are pre-diluted in T-cell medium (concentration depending on T-cell donor), 4 times more concentrated than the end-concentration. 60 μL/well of pre-dilutions are then distributed into a round bottom plate (Costar, #3799) according to plate layout. Compounds are added in a 9 pt dose response with the Tecan D300e Digital Dispenser, as well 4 times more concentrated than the end-concentration. DMSO concentration of all wells is adjusted to 0.8%, resulting in 0.2% as final concentration.
60 μL per well of T-cell suspension are added to the prepared round bottom plate and resuspended with a manual multichannel. 100 μL/well of the resuspended T-cell suspension including treatments are then transferred cautiously to the over-night cultured MV-3 cells according to plate layout. 100 μL T-cell medium only is added to the outer MV-3 wells only. Final compound DR is starting at 20 μM with a dilution factor of 3.333. Final TCB concentration is between 1.5 pM to 5 pM and was determined for each T-cell donor individually by running TCB titrations. For each donor, a TCB concentration was chosen which corresponds to 10-20% MV3 baseline cell killing in the absence of compound treatment. Positive control is the reference compound A1 which is added in a DR, as well as additional wells with only 20 μM. 20 μM of reference compound A1 represent the positive stimulator control, TCB only (DMSO wells) the neutral control.
After transfer of T-cells with treatment pre-dilutions, MV-3 cells are imaged by time-lapse microscopy using IncucyteZOOM™ (Essen BioScience, MI, USA). Imaging is performed every 3 hours for a total of 120 hours (10× objective, phase and red image channels, acquisition time 400 ms, Green/Red 4614 optical module). RFP object count per well is analysed in the IncucyteZOOM™ Software (Version 2019B Rev2) with a mask that was previously created and optimized for MV-3 cells. Raw data is exported as object count/well and values are normalized as % TCL compared to wells with MV-3 only, representing 100% growth and therefore 0% TCL.
Calculated % TCL values are analysed in Genedata Screener using Roche Normalization PCT_POS_CTRL with MCSP-TCB only set as Neutral Control and 20 μM of the reference compound A1 set as Stimulator Control/100%.
Induced TCL by compounds without TCB treatment or toxicity (observed in the PBS condition) were be flagged.

The target of assay [4] is T3, DGKα (hDGKalpha(1-735)-N-His) (Homo sapiens, UniProt P23743).
T3 construct: hDGKalpha(1-735)-N-His; His (N); made in house; host or cells: Sf21 insect cells (baculovirus)
T3 sequence (P23743 whole entry): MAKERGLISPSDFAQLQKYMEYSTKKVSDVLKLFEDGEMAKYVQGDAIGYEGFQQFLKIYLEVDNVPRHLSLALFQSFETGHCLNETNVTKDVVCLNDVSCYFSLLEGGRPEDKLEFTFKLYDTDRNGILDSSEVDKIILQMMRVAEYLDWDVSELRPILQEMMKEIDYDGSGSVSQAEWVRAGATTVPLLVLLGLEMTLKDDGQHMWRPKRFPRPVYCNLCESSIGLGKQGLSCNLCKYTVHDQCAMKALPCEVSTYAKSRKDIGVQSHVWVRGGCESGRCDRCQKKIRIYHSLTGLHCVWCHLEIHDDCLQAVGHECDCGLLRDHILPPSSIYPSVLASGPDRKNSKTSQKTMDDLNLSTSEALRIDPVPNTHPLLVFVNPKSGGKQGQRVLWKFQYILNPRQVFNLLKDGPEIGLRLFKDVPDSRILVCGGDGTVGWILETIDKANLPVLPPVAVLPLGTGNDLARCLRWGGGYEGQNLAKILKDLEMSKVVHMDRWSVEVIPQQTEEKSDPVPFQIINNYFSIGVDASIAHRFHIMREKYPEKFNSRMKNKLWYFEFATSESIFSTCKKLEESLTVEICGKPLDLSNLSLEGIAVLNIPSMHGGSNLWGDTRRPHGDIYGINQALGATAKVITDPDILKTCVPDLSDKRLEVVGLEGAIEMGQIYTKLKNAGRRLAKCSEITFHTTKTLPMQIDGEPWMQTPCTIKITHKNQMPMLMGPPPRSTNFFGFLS
The assay is described as follows: In vitro DGK inhibition assay, DGKalpha ADP Glo (in house). Particulars: 4 nM DGKα, 25 μM ATP, 125 uM DLG in liposomes, 1 hour reaction. The format is biochemical. Summed up: as §1

Some results are limits rather than exact numbers.

Data on eleven compounds can be found in patent US20260138976A1 (Hoffmann-La Roche Inc., priority 2022, published 2026).

T1 sequence (Q13574 whole entry): as the sequence (Q13574 whole entry) above

In general, IC50 refers to the concentration needed to halve the response being measured. Lower therefore signals greater potency in that assay. By Emax is commonly meant the maximal effect, on the per cent scale that the assay sets. As a reminder, the EC50 is the concentration giving half of the maximal effect. `CC(C)(C)c1nnc(-c2ccc3c(c2)N(Cc2ccc(-c4nnc(C(F)(F)F)o4)cc2)C(=O)[C@@H](N)CS3(=O)=O)o1` [Example 24, (3R)-3-amino-7-(5-tert-butyl-1,3,4-oxadiazol-2-yl)-1,1-dioxo-5-[[4-[5-(trifluoromethyl)-1,3,4-oxadiazol-2-yl]phenyl]methyl]-2,3-dihydro-1λ^6,5-benzothiazepin-4-one]: the IC50 came out at 1.44 µM in assay [1], 0.51 µM in assay [2] and 9.86 µM in assay [4]. Further, the Emax in assay [3] worked out at 108%. In assay [3], the EC50 came out at 0.273 µM.
The like results for `CC(N)(c1nnc(-c2ccc3c(c2)N(Cc2ccc(-c4noc(C(F)(F)F)n4)cc2)C(=O)[C@@H](N)CS3(=O)=O)o1)C(F)(F)F` (stereo partly drawn) [Example 32, (3R)-3-amino-7-[5-(1-amino-2,2,2-trifluoro-1-methyl-ethyl)-1,3,4-oxadiazol-2-yl]-1,1-dioxo-5-[[4-[5-(trifluoromethyl)-1,2,4-oxadiazol-3-yl]phenyl]methyl]-2,3-dihydro-1λ^6,5-benzothiazepin-4-one] were, in that order, 1.74 µM, 0.128 µM, 39.4 µM, 100% and 0.12 µM.
As for `CC(C#N)c1nnc(-c2ccc3c(c2)N(Cc2ccc(-c4noc(C(F)(F)F)n4)cc2)C(=O)[C@@H](N)CS3(=O)=O)o1` (stereo partly drawn) [Example 35, 2-[5-[(3R)-3-amino-1,1,4-trioxo-5-[[4-[5-(trifluoromethyl)-1,2,4-oxadiazol-3-yl]phenyl]methyl]-2,3-dihydro-1λ^6,5-benzothiazepin-7-yl]-1,3,4-oxadiazol-2-yl]propanenitrile], the IC50 turned out to be 3.06 µM in assay [1] and 10.1 µM in assay [4]. Moreover, in assay [3], the Emax stood at 91%. In addition, in assay [3], the EC50 was 0.373 µM.
On to `N[C@H]1CS(=O)(=O)c2ccc(-c3nnc(C4(C5CC5)CCCO4)o3)cc2N(Cc2ccc(-c3noc(C(F)(F)F)n3)cc2)C1=O` (stereo partly drawn) [Example 36, (3R)-3-amino-7-[5-(2-cyclopropyl-tetrahydrofuran-2-yl)-1,3,4-oxadiazol-2-yl]-1,1-dioxo-5-[[4-[5-(trifluoromethyl)-1,2,4-oxadiazol-3-yl]phenyl]methyl]-2,3-dihydro-1λ^6,5-benzothiazepin-4-one], for which the values for the IC50 in assay [1], in assay [2] and in assay [4] were 0.956 µM, 0.0507 µM and 2.6 µM, respectively.
On to `COC(F)(c1nnc(-c2ccc3c(c2)N(Cc2ccc(-c4noc(C(F)(F)F)n4)cc2)C(=O)[C@@H](N)CS3(=O)=O)o1)C(F)(F)F` (stereo partly drawn) [Example 37, (3R)-3-amino-1,1-dioxo-7-[5-(1,2,2,2-tetrafluoro-1-methoxy-ethyl)-1,3,4-oxadiazol-2-yl]-5-[[4-[5-(trifluoromethyl)-1,2,4-oxadiazol-3-yl]phenyl]methyl]-2,3-dihydro-1λ^6,5-benzothiazepin-4-one], for which the IC50 in assay [1] worked out at 8.83 µM. In addition, in assay [3], the Emax amounted to 133% and the EC50 came to 0.058 µM. Further, inhibition in assay [4] was half-maximal at 2 µM (IC50).
The like results for `N[C@H]1CS(=O)(=O)c2ccc(-c3nnc(C4(CO)CCCO4)o3)cc2N(Cc2ccc(-c3noc(C(F)(F)F)n3)cc2)C1=O` (stereo partly drawn) [Example 54, (3R)-3-amino-7-[5-[2-(hydroxymethyl)tetrahydrofuran-2-yl]-1,3,4-oxadiazol-2-yl]-1,1-dioxo-5-[[4-[5-(trifluoromethyl)-1,2,4-oxadiazol-3-yl]phenyl]methyl]-2,3-dihydro-1λ^6,5-benzothiazepin-4-one] were, in that order, 1.38 µM, 86%, 0.246 µM and 12.6 µM.
In turn, `N[C@H]1CS(=O)(=O)c2ccc(-c3nnc(N4CCOC(F)(F)C4)o3)cc2N(Cc2ccc(-c3nnc(C(F)(F)F)o3)cc2)C1=O` [Example 80] gave an IC50 in assay [1] of 1.26 µM. Further, in assay [3], the Emax was 86% and the EC50 came out at 0.257 µM. In assay [4], this compound had an IC50 of 11.8 µM.
Turning to `CC(C)(C#N)c1nnc(-c2cc3c(cc2F)S(=O)(=O)C[C@H](N)C(=O)N3Cc2ccc(-c3ccc(C(F)(F)F)cn3)cc2)o1` [Example 88, 2-[5-[(3R)-3-amino-8-fluoro-1,1,4-trioxo-5-[[4-[5-(trifluoromethyl)-2-pyridyl]phenyl]methyl]-2,3-dihydro-1λ^6,5-benzothiazepin-7-yl]-1,3,4-oxadiazol-2-yl]-2-methyl-propanenitrile], the IC50 in assay [1] worked out at 0.183 µM; in assay [2], 0.0041 µM; in assay [4], 0.762 µM.
In assay [1], `Cn1nc(C(F)(F)F)cc1-c1ccc(CN2C(=O)[C@@H](N)CS(=O)(=O)c3ccc(-c4nnc(C(C)(C)C)o4)cc32)cc1` [Example 92] yielded an IC50 of 1.71 µM. Moreover, in assay [3], the Emax was 99% and the EC50 was determined as 0.12 µM. The IC50 in assay [4] came out at 17.5 µM.
Take `CC(O)(c1nnc(-c2ccc3c(c2)N(Cc2ccc(-c4noc(C(F)(F)F)n4)cc2)C(=O)[C@@H](N)CS3(=O)=O)o1)C(F)(F)F` (stereo partly drawn) [Example 96, (3R)-3-amino-1,1-dioxo-7-[5-(2,2,2-trifluoro-1-hydroxy-1-methyl-ethyl)-1,3,4-oxadiazol-2-yl]-5-[[4-[5-(trifluoromethyl)-1,2,4-oxadiazol-3-yl]phenyl]methyl]-2,3-dihydro-1λ^6,5-benzothiazepin-4-one]: the figures for the IC50 in assay [1], in assay [2] and in assay [4] were 3.38 µM, 0.107 µM and 24.6 µM, respectively.
Take `N[C@H]1CS(=O)(=O)c2ccc(-c3nnc(N4CCC(F)(F)CC4)o3)cc2N(Cc2ccc(-n3ccc(C(F)(F)F)n3)cc2)C1=O` [Example 162, (3R)-3-amino-7-[5-(4,4-difluoro-1-piperidyl)-1,3,4-oxadiazol-2-yl]-1,1-dioxo-5-[[4-[3-(trifluoromethyl)pyrazol-1-yl]phenyl]methyl]-2,3-dihydro-1λ^6,5-benzothiazepin-4-one]: it took 1.1 µM to reach half-maximal inhibition in assay [1] (IC50). Moreover, in assay [3], the Emax came out at 100% and the EC50 is 0.168 µM. In assay [4], the half-inhibitory concentration (IC50) was > 62.5 µM.
